Tested on: PC3 cells
Assay: NAMPT Cell Proliferation Assay (Cell Titer Glo; also performed in the presence of 0.3 mM nicotinamide mononucleotide)
Assay type: cell-based
Conditions: Homo sapiens, PC-3, 120 h, 5 days incubation, cell viability by Cell Titer Glo
Method: NAMPT Cell Proliferation Assay
PC3 cells were seeded in 96-well black plates (Corning #3904) at 500 cells/well in 90 μl of RPMI media containing 10% heat-inactivated FBS and incubated overnight at 37° C. and 5% CO2 to allow cells to attach to wells. The following day, test compounds were serially diluted in neat DMSO to 1000× final concentrations prior to dilution with RPMI media to 10× and 1% DMSO. Ten μL of the 10× compounds were then transferred to wells containing cells to produce a dose response of 10-fold dilutions from 10 μM to 1×10^−5 μM. Cells were incubated for 5 days at 37° C. and 5% CO2, then cell viability was measured using Cell Titer Glo reagent (Promega #G7571). Percent inhibition values were calculated and fitted to a sigmoidal dose response curves using Assay Explorer software to determine IC50s.

Row | SMILES | IC50 [nM]
1 | O=C(Nc1ccc(CC2CCN(C(=O)c3cccs3)CC2)cc1)C1CN(c2cccnn2)C1 [Example 947, 1-(pyridazin-3-yl)-N-(4-{[1-(thiophen-2-ylcarbonyl)piperidin-4-yl]methyl}phenyl)azetidine-3-carboxamide] | 2.56
2 | CSCC(=O)N1CCC(Cc2ccc(NC(=O)C3CN(c4cccnn4)C3)cc2)CC1 [Example 932, N-[4-({1-[(methylsulfanyl)acetyl]piperidin-4-yl}methyl)phenyl]-1-(pyridazin-3-yl)azetidine-3-carboxamide] | 5.82
3 | O=C(NC1CCC1)c1ccc(NC(=O)C2CN(c3cccnn3)C2)cc1 [Example 992, N-[4-(cyclobutylcarbamoyl)phenyl]-1-(pyridazin-3-yl)azetidine-3-carboxamide] | 1510
4 | Cc1ccc(N2CC(C(=O)Nc3ccc(O[C@@H]4CCN(C(=O)c5ccc(F)cc5F)C4)cc3)C2)nn1 [Example 917, N-(4-{[(3R)-1-(2,4-difluorobenzoyl)pyrrolidin-3-yl]oxy}phenyl)-1-(6-methylpyridazin-3-yl)azetidine-3-carboxamide] | 101
5 | CC1(Cn2cc(-c3ccc(NC(=O)C4CN(c5cccnc5)C4)cc3)cn2)CCNCC1 [Example 877, N-(4-{1-[(4-methylpiperidin-4-yl)methyl]-1H-pyrazol-4-yl}phenyl)-1-(pyridin-3-yl)azetidine-3-carboxamide] | 29.6
6 | O=C(N[C@H]1CCN(c2cccnn2)C1)c1ccc(C2CCN(C(=O)CC(F)(F)F)CC2)s1 [Example 1017, N-[(3S)-1-(pyridazin-3-yl)pyrrolidin-3-yl]-5-[1-(3,3,3-trifluoropropanoyl)piperidin-4-yl]thiophene-2-carboxamide] | 752
7 | O=C(NCCC1CC1)c1ccc(NC(=O)C2CN(c3cccnn3)C2)cc1 [Example 975, N-{4-[(2-cyclopropylethyl)carbamoyl]phenyl}-1-(pyridazin-3-yl)azetidine-3-carboxamide] | 98
8 | O=C(Nc1ccc(F)cc1)c1ccc(NC(=O)C2CN(c3cccnn3)C2)cc1 [Example 1009, N-{4-[(4-fluorophenyl)carbamoyl]phenyl}-1-(pyridazin-3-yl)azetidine-3-carboxamide] | 81.8
9 | CC(C)CCC(=O)N1CCC(Cc2ccc(NC(=O)C3CN(c4cccnn4)C3)cc2)CC1 [Example 935, N-(4-{[1-(4-methylpentanoyl)piperidin-4-yl]methyl}phenyl)-1-(pyridazin-3-yl)azetidine-3-carboxamide] | 2
10 | Cn1nc(C(=O)O)cc1-c1ccc(NC(=O)C2CN(c3cccnn3)C2)cc1 [Example 911, 1-methyl-5-[4-({[1-(pyridazin-3-yl)azetidin-3-yl]carbonyl}amino)phenyl]-1H-pyrazole-3-carboxylic acid] | > 10000
11 | O=C(Nc1ccc(CC2CCN(C(=O)C3CCCC3)CC2)cc1)C1CN(c2cccnn2)C1 [Example 928, N-(4-{[1-(cyclopentylcarbonyl)piperidin-4-yl]methyl}phenyl)-1-(pyridazin-3-yl)azetidine-3-carboxamide] | 2.56
12 | Cc1ccc(N2CC[C@H](C(=O)Nc3ccc(C4CCN(C(=O)c5ccccc5F)CC4)cc3)C2)nn1 [Example 892, (3S)—N-{4-[1-(2-fluorobenzoyl)piperidin-4-yl]phenyl}-1-(6-methylpyridazin-3-yl)pyrrolidine-3-carboxamide] | 146
13 | Cc1ccnnc1N1CC(C(=O)Nc2ccc(C3CCN(C(=O)c4ccccc4)CC3)cc2)C1 [Example 906, N-[4-(1-benzoylpiperidin-4-yl)phenyl]-1-(4-methylpyridazin-3-yl)azetidine-3-carboxamide] | 0.879
14 | CC1(C(=O)N2CCC(Cc3ccc(NC(=O)C4CN(c5cccnn5)C4)cc3)CC2)CC1 [Example 904, N-[4-({1-[(1-methylcyclopropyl)carbonyl]piperidin-4-yl}methyl)phenyl]-1-(pyridazin-3-yl)azetidine-3-carboxamide] | 1.95
15 | O=C(N[C@H]1CCN(c2cccnn2)C1)c1ccc(C2CCN(C(=O)CC3CC4CCC3C4)CC2)s1 (stereo partly drawn) [Example 1019, 5-[1-(bicyclo[2.2.1]hept-2-ylacetyl)piperidin-4-yl]-N-[(3S)-1-(pyridazin-3-yl)pyrrolidin-3-yl]thiophene-2-carboxamide] | 2460
16 | C#CCCC(=O)N1CCC(Cc2ccc(NC(=O)C3CN(c4cccnn4)C3)cc2)CC1 [Example 941, N-(4-{[1-(pent-4-ynoyl)piperidin-4-yl]methyl}phenyl)-1-(pyridazin-3-yl)azetidine-3-carboxamide] | 2.1
17 | CC[C@H](C)C(=O)N1CCC(Cc2ccc(NC(=O)C3CN(c4cccnn4)C3)cc2)CC1 [Example 903, N-[4-({1-[(2S)-2-methylbutanoyl]piperidin-4-yl}methyl)phenyl]-1-(pyridazin-3-yl)azetidine-3-carboxamide] | 0.618
18 | CCOCC(=O)N1CCC(Cc2ccc(NC(=O)C3CN(c4cccnn4)C3)cc2)CC1 [Example 946, N-(4-{[1-(ethoxyacetyl)piperidin-4-yl]methyl}phenyl)-1-(pyridazin-3-yl)azetidine-3-carboxamide] | 2.89
19 | CCC(C)(C)C(=O)N1CCC(c2ccc(C(=O)N[C@H]3CCN(c4cccnn4)C3)s2)CC1 [Example 1015, 5-[1-(2,2-dimethylbutanoyl)piperidin-4-yl]-N-[(3S)-1-(pyridazin-3-yl)pyrrolidin-3-yl]thiophene-2-carboxamide] | 90.1

Continued, values first:

Row | IC50 [nM] | SMILES
20 | 2.39 | O=C(Nc1ccc(CC2CCN(C(=O)CC3C[C@@H]4CC[C@H]3C4)CC2)cc1)C1CN(c2cccnn2)C1 (stereo partly drawn) [Example 933, N-[4-({1-[(1S,4R)-bicyclo[2.2.1]hept-2-ylacetyl]piperidin-4-yl}methyl)phenyl]-1-(pyridazin-3-yl)azetidine-3-carboxamide]
21 | 5.95 | Cn1cccc1C(=O)N1CCC(Cc2ccc(NC(=O)C3CN(c4cccnn4)C3)cc2)CC1 [Example 949, N-[4-({1-[(1-methyl-1H-pyrrol-2-yl)carbonyl]piperidin-4-yl}methyl)phenyl]-1-(pyridazin-3-yl)azetidine-3-carboxamide]
22 | 51.9 | O=C(Nc1ccc(C2CCN(C(=O)CCC(F)(F)F)CC2)nc1)C1CN(c2cccnn2)C1 [Example 919, 1-(pyridazin-3-yl)-N-{6-[1-(4,4,4-trifluorobutanoyl)piperidin-4-yl]pyridin-3-yl}azetidine-3-carboxamide]
23 | 59 | COC(C)(C)CNC(=O)c1ccc(NC(=O)C2CN(c3cccnn3)C2)cc1 [Example 994, N-{4-[(2-methoxy-2-methylpropyl)carbamoyl]phenyl}-1-(pyridazin-3-yl)azetidine-3-carboxamide]
24 | 6.38 | O=C(Nc1ccc(CC2CCN(C(=O)c3ccccn3)CC2)cc1)C1CN(c2cccnn2)C1 [Example 954, 1-(pyridazin-3-yl)-N-(4-{[1-(pyridin-2-ylcarbonyl)piperidin-4-yl]methyl}phenyl)azetidine-3-carboxamide]
25 | 604 | O=C(NC1(C2CC2)CC1)c1ccc(NC(=O)C2CN(c3cccnn3)C2)cc1 [Example 983, N-{4-[1,1′-bi(cyclopropyl)-1-ylcarbamoyl]phenyl}-1-(pyridazin-3-yl)azetidine-3-carboxamide]
26 | 61.2 | CCC1CCCCN1CCNC(=O)c1ccc(NC(=O)C2CN(c3cccnn3)C2)cc1 (stereo not shown) [Example 976, N-(4-{[2-(2-ethylpiperidin-1-yl)ethyl]carbamoyl}phenyl)-1-(pyridazin-3-yl)azetidine-3-carboxamide]
27 | 30.9 | O=C(Nc1ccc(C2CCN(C(=O)CCC(F)(F)F)CC2)c(F)c1)C1CN(c2cccnn2)C1 [Example 883, N-{3-fluoro-4-[1-(4,4,4-trifluorobutanoyl)piperidin-4-yl]phenyl}-1-(pyridazin-3-yl)azetidine-3-carboxamide]
28 | 83.5 | CN(CCNC(=O)c1ccc(NC(=O)C2CN(c3cccnn3)C2)cc1)c1ccccc1 [Example 982, N-[4-({2-[methyl(phenyl)amino]ethyl}carbamoyl)phenyl]-1-(pyridazin-3-yl)azetidine-3-carboxamide]
29 | 6.45 | CC(=O)N1CCC(Cc2ccc(NC(=O)C3CN(c4cccnn4)C3)cc2)CC1 [Example 902, N-{4-[(1-acetylpiperidin-4-yl)methyl]phenyl}-1-(pyridazin-3-yl)azetidine-3-carboxamide]
30 | 2.18 | CSCCC(=O)N1CCC(Cc2ccc(NC(=O)C3CN(c4cccnn4)C3)cc2)CC1 [Example 936, N-[4-({1-[3-(methylsulfanyl)propanoyl]piperidin-4-yl}methyl)phenyl]-1-(pyridazin-3-yl)azetidine-3-carboxamide]
31 | 6.06 | C=CCC(=O)N1CCC(Cc2ccc(NC(=O)C3CN(c4cccnn4)C3)cc2)CC1 [Example 950, N-(4-{[1-(but-3-enoyl)piperidin-4-yl]methyl}phenyl)-1-(pyridazin-3-yl)azetidine-3-carboxamide]
32 | 667 | O=C(Nc1ccccc1)c1ccc(NC(=O)C2CN(c3cccnn3)C2)cc1 [Example 972, N-[4-(phenylcarbamoyl)phenyl]-1-(pyridazin-3-yl)azetidine-3-carboxamide]
33 | 0.401 | CCC(CC)C(=O)N1CCC(Cc2ccc(NC(=O)C3CN(c4cccnn4)C3)cc2)CC1 [Example 899, N-(4-{[1-(2-ethylbutanoyl)piperidin-4-yl]methyl}phenyl)-1-(pyridazin-3-yl)azetidine-3-carboxamide]
34 | 8.18 | O=C(Nc1ccc(C2CCN(C(=O)CC(F)(F)F)CC2)c(F)c1)C1CN(c2cccnn2)C1 [Example 881, N-{3-fluoro-4-[1-(3,3,3-trifluoropropanoyl)piperidin-4-yl]phenyl}-1-(pyridazin-3-yl)azetidine-3-carboxamide]
